According to patent publication US5952308A, “Mineral absorption promoting agent” (Pola Chemical Industries Inc., priority 1991, dated 1999):

Tests used:
hemoglobin = test: Mineral absorption promoting effect test on animals (hemoglobin increase, iron utilization); assay type: in vivo, Wistar male rats
Protocol: Wistar male rats (body weight:80 g) were feeded for 3 weeks, giving iron-free feed, ferrous sulfate-added feed (iron: 12 ppm), or ferrous sulfate and oligogalacturonic acid-added feed (iron: 12 ppm, powder oligogalacturonic acid obtained in the preparation method 1=0.5%).
During the period, hemoglobin concentration in blood was measured every 7 days, and utilization ratios of iron in each of these feeds were compared, using hemoglobin increase (hemoglobin concentration in blood×blood volume) as an index.
Net increase of hemoglobin (number of tested rats = 10); unit: […]

Wistar rat = test: Acute toxicity test of oligogalacturonic acid; conditions: in vivo, po
Protocol: Acute toxicity test of oligogalacturonic acid
Animal: Wistar rat: One group comprising
10 each of male and female rats
Specimen: 50% oligogalacturonic acid aqueous
Oral forced administration
Dosage: Group 1 10 ml/kg

## ferrous sulfate
hemoglobin; 7th day, feed with iron 12 ppm, n = 10 rats, ± SD
  Net increase of hemoglobin, 7th day: 0.2 ± 0.1 g
hemoglobin; 14th day, feed with iron 12 ppm, n = 10 rats, ± SD
  Net increase of hemoglobin, 14th day: 0.3 ± 0.1 g
hemoglobin; 21st day, feed with iron 12 ppm, n = 10 rats, ± SD
  Net increase of hemoglobin, 21st day: 0.4 ± 0.2 g
hemoglobin; at start, feed with iron 12 ppm, n = 10 rats, ± SD
  Net increase of hemoglobin, at start: 0 g
hemoglobin; iron in feed, 3 weeks, index hemoglobin increase (hemoglobin concentration in blood×blood volume)
  Utilization ratio: 33%

## oligogalacturonic acid
Wistar rat
  autopsy after 14 days: no abnormal sign
